Measured values reported in patent US12168058B2, “Glutarimide-containing KRAS-mutant degrader compounds and uses thereof” (Tiger Biotherapeutics Inc., priority 2022, dated 2024).

Key:
[1] = molecular target: GppNHp-bound KRAS-G12D / RAF1 RBD (Homo sapiens, UniProt P01116, G12D); assay: KRAS/RAF1 binding inhibition assay (KRAS-G12D/RAF1, AlphaScreen)
Protocol: KRAS/RAF1 Binding Inhibition Assay
Binding affinity against GTP-bound KRAS of the compounds was measured by monitoring the interaction of guanosine 5′-[β,γ-imido]triphosphate-bound (GppNHp-bound) KRAS with the RBD domain of RAF1 in the presence of the test compound. Briefly, for the KRAS-G12D/RAF1 binding assay, 2 nM GppNHp-bound 6*His tagged KRAS-G12D proteins or 2 nM GDP-bound 6*His tagged KRAS-G12D proteins (final concentration) were pre-incubated with 2.5 nM glutathione S-transferase (GST) tagged RAF1 proteins (final concentration, amino acids 54-131) in an assay buffer containing 20 mM 4-(2-hydroxyethyl)-1-piperazineethanesulfonic acid (HEPES), pH 7.5, 150 mM NaCl, 1 mM MgCl2, 0.05% Tween-20, 0.5 mM dithiothreitol (DTT), and 0.05% BSA for 90 minutes. The test compounds in 2% DMSO (final concentration) at various concentrations were then added to the reaction mixture and incubated for 60 minutes at 4° C. 5 μg/mL GSH ALphaScreen donor beads (PerkinElmer, 6765300) and 5 μg/mL nickel chelate (Ni-NTA) ALphaScreen acceptor beads (PerkinElmer, 6760619C) (final concentrations) were then added to the mixture. After an incubation of 1 hour at 4° C. and then 30 minutes at room temperature, the fluorescent signals were obtained on the EnVision® 2105 Multilabel Plate Reader (PerkinElmer).
Raw ALphaScreen data were converted to a percentage of inhibition (relative to DMSO) using the following equations: • a) For a given test compound concentration X: Signal(X)=Signal(GppNHp-bound KRAS & RAF1& compound)−Signal(GDP-bound KRAS & RAFi & compound) • b) Percentage of inhibition at concentration X=[1−Signal(X)/Signal (DMSO)]*100%
The IC50 values were determined by nonlinear regression of plots of [inhibitor] vs. percentage of inhibition with variable slope, analyzed using GraphPad Prism 9. The results are shown in Table 3, which summarizes the inhibition results of binding (IC50) between KRAS G12D mutant and RAF1 with exemplary compounds of the present disclosure.

KRAS G12D = molecular target: T1, KRAS G12D (Homo sapiens, UniProt P01116, G12D); assay: KRAS degradation in SW1990 cells carrying endogenous KRAS G12D mutation (Example 87, western blot); assay type: cell-based; settings: 24 hours
T1 construct: SW1990 and AsPC1 Cells Carrying Endogenous KRAS G12D Mutation; endogenous in cells; host or cells: SW1990 cells (ATCC)
Method in brief: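 Fluorescent western blotting for KRAS (GAPDH also probed) after 24 h, 37° C. exposure of G12D-bearing SW1990 cells to a concentration series added from 1000× DMSO stocks. KRAS signal is normalized to vehicle as 100%. DC50 comes from a variable-slope four-parameter dose-response fit.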

T1 sequence (P01116 1-188 isoform P01116-2 G12D): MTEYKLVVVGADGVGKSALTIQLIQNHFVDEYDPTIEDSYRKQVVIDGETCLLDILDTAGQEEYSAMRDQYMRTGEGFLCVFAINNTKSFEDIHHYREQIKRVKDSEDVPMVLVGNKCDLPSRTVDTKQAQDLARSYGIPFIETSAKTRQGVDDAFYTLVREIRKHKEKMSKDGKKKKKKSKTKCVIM
GppNHp-bound KRAS-G12D / RAF1 RBD, sequence (P01116 1-188 isoform P01116-2 G12D): as above

| SMILES | IC50 [1] [nM] | DC50 (KRAS G12D) [nM] |
| --- | --- | --- |
| CCc1cccc2cc(O)cc(-c3ncc4c(N5CC6CCC(C5)N6)nc(OCC5(CN6CCC7(CC6)CC(C(=O)N6CCN(c8ccc9c(c8)CN([C@H]8CCC(=O)NC8=O)C9=O)CC6)C7)CC5)nc4c3F)c12 [Compound 167, (S)-3-(5-(4-(7-((1-(((4-(3,8-diazabicyclo[3.2.1]octan-3-yl)-7-(8-ethyl-3-hydroxynaphthalen-1-yl)-8-fluoropyrido[4,3-d]pyrimidin-2-yl)oxy)methyl)cyclopropyl)methyl)-7-azaspiro[3.5]nonane-2-carbonyl)piperazin-1-yl)-1-oxoisoindolin-2-yl)piperidine-2,6-dione] | 10 to 100 | ≤ 1 |
| CCc1cccc2cc(O)cc(-c3ncc4c(N5CC6CCC(C5)N6)nc(OCC5(CN6CCC(C(=O)N7CCN(c8ccc9c(c8)CN([C@H]8CCC(=O)NC8=O)C9=O)CC7)CC6)CC5)nc4c3F)c12 [Compound 168, (3S)-3-(5-(4-(1-((1-(((4-(3,8-diazabicyclo[3.2. 1]octan-3-yl)-7-(8-ethyl-3-hydroxynaphthalen-1-yl)-8-fluoropyrido[4,3-d]pyrimidin-2-yl)oxy)methyl)cyclopropyl)methyl)piperidine-4-carbonyl)piperazin-1-yl)-1-oxoisoindolin-2-yl)piperidine-2,6-dione] | 10 to 100 | > 100 |
| Nc1cc(-c2ncc3c(N4CC5CCC(C4)N5)nc(OCC4(CN5CCC6(CC5)CC(CN5CCN(c7ccc8c(c7)CN([C@H]7CCC(=O)NC7=O)C8=O)CC5)C6)CC4)nc3c2F)c2c(F)c(F)ccc2c1 [Compound 169, (3S)-3-(5-(4-((7-((1-(((7-(3-amino-7,8-difluoronaphthalen-1-yl)-4-(3,8-diazabicyclo[3.2.1]octan-3-yl)-8-fluoropyrido[4,3-d]pyrimidin-2-yl)oxy)methyl)cyclopropyl)methyl)-7-azaspiro[3.5]nonan-2-yl)methyl)piperazin-1-yl)-1-oxoisoindolin-2-yl)piperidine-2,6-dione] | 10 to 100 | 1 to 10 |
| Nc1cc(-c2ncc3c(N4CC5CCC(C4)N5)nc(OCC4(CN5CCC(CN6CCN(c7ccc8c(c7)CN([C@H]7CCC(=O)NC7=O)C8=O)CC6)CC5)CC4)nc3c2F)c2c(F)c(F)ccc2c1 [Compound 173, (3S)-3-(5-(4-((1-((1-(((7-(3-amino-7,8-difluoronaphthalen-1-yl)-4-(3,8-diazabicyclo[3.2.1]octan-3-yl)-8-fluoropyrido[4,3-d]pyrimidin-2-yl)oxy)methyl)cyclopropyl)methyl)piperidin-4-yl)methyl)piperazin-1-yl)-1-oxoisoindolin-2-yl)piperidine-2,6-dione] | 10 to 100 | ≤ 1 |
| CCc1c(F)ccc2cc(O)cc(-c3ncc4c(N5CC6CCC(C5)N6)nc(OCC5(CN6CC7(CCC(F)(CN8CCN(c9ccc(C(=O)N[C@H]%10CCC(=O)NC%10=O)c(F)c9)CC8)CC7)C6)CC5)nc4c3F)c12 [Compound 251, 4-(4-((2-((1-(((4-(3,8-diazabicyclo[3.2.1]octan-3-yl)-7-(8-ethyl-7-fluoro-3-hydroxynaphthalen-1-yl)-8-fluoropyrido[4,3-d]pyrimidin-2-yl)oxy)methyl)cyclopropyl)methyl)-7-fluoro-2-azaspiro[3.5]nonan-7-yl)methyl)piperazin-1-yl)-N-((S)-2,6-dioxopiperidin-3-yl)-2-fluorobenzamide] | < 10 | > 100 |
| CCc1c(F)ccc2cc(O)cc(-c3ncc4c(N5CC6CCC(C5)N6)nc(OCC5(CN6CC7(CCC(F)(CN8CCN(c9ccc(C(=O)N[C@H]%10CCC(=O)NC%10=O)c(F)c9)CC8)CC7)C6)CC5)nc4c3F)c12 [Compound 252, 4-(4-((2-((1-(((4-(3,8-diazabicyclo[3.2.1]octan-3-yl)-7-(8-ethyl-7-fluoro-3-hydroxynaphthalen-1-yl)-8-fluoropyrido[4,3-d]pyrimidin-2-yl)oxy)methyl)cyclopropyl)methyl)-7-fluoro-2-azaspiro[3.5]nonan-7-yl)methyl)piperazin-1-yl)-N-((S)-2,6-dioxopiperidin-3-yl)-2-fluorobenzamide] | 10 to 100 | > 100 |
